The text below walks through data of patent US5116845A (priority 1990, dated 1992).

One data set deals with P388 leukemia. The data set can be described thus: Antitumor activity against P388 leukemia (ip). The class given is in vivo, mice. As to conditions: maximum over the doses.
Data set [1] has as its system Gram-positive aerobic bacteria. The class given is cell-based.
The test system of the next data set is Gram-negative organisms. The format is cell-based.
A short description of a further data set: Solubility. The class given is physicochemical.
Another data set deals with Moser and HCT-116 cells. As to conditions: versus murine B16-F10.
Another data set has as its system mice. The data set can be described thus: Acute toxicity, intramuscular. The format is in vivo. As to conditions: 5 mg/kg intramuscular.
The subject of data set [2] is murine and human tumor cell lines. Kind of data set: In vitro cytotoxicity.
The test system of another data set is P388/VCR. Kind of data set: In vitro cytotoxicity (viable cell count).

With `COC1=C(C(=O)O)C(C)C23OC24c2cc(OC(C)=O)c5c(c2NC3C#C/C=C\C#CC14)C(=O)c1c(OC(C)=O)ccc(OC(C)=O)c1C5=O` (centres unmarked) [BU-3420T acetate], the “maximum T/C” value in the data set on P388 leukemia is 135%. For the same molecule, in data set [1], the “activity against Gram-positive aerobic bacteria” value is on record as “intensely potent activity”. For the same molecule, in the data set with Gram-negative organisms, the “susceptibility of Gram-negative organisms” value was “a little less susceptible”. For the same molecule, the “solubility in organic solvents” value in “Solubility” (chloroform, methanol and ethanol, compared with BU-3420T) is recorded as “much improved solubility”.
Turning to `CO[C@@]12[C@H](COC(N)=O)C3=C(C(=O)C(C)=C(N)C3=O)N1C[C@@H]1N[C@@H]12` [Mitomycin C], the “resistance of Moser and HCT-116 relative to B16-F10” value in the data set on Moser and HCT-116 cells is recorded as “slightly more resistant”.
In the case of `COC1=C(C(=O)O)C(C)C23OC24c2cc(O)c5c(c2NC3C#CC=CC#CC14)C(=O)c1c(O)ccc(O)c1C5=O` (centres unmarked) [BU-3420T], the toxicity result in the data set with mice is “did not show any toxicity”. Further, the “maximum T/C” value with P388 leukemia is on record as 135%. Further, the “activity against Gram-positive aerobic bacteria” value in data set [1] is listed as “intensely potent activity”. In the data set with Gram-negative organisms, the “susceptibility of Gram-negative organisms” value is reported as “a little less susceptible”. Moreover, the solubility entry is reported as “slightly soluble” in “Solubility” (chloroform); “soluble” in “Solubility” (dimethyl sulfoxide); “soluble” in the data set “Solubility” (dimethylformamide); “soluble” in the data set “Solubility” (dioxane); “slightly soluble” in “Solubility” (ethanol); “slightly soluble” in the data set “Solubility” (ethyl acetate). In addition, the results for the solubility entry in “Solubility” (methanol), in the data set “Solubility” (n-hexane) and in the data set “Solubility” (water) were “slightly soluble”, “insoluble” and “insoluble”, respectively. In data set [2], the cytotoxicity entry was “potent cytotoxicity”. In the data set on P388/VCR, the “cytotoxicity against VCR-resistant versus sensitive P388 cells” value was “same cytotoxicities”.
